# In US20240228504A1, “SUBSTITUTED TRICYCLIC AMIDES, ANALOGUES THEREOF, AND METHODS USING SAME” (Arbutus Biopharma Corporation, priority 2020, published 2024):
# Read-outs that look alike come from different tables or passages of the source.
# Tested on: HBV rcDNA in HepDE19 cells
# Assay: HepDE19 assay with bDNA quantitation of HBV rcDNA
# Format: cell-based, hepatitis B virus
# Details: inhibition of rcDNA formation, bDNA quantitation, read-out: DE-19bDNA EC50
compound,measurement,setting,value
"CN(C(=O)c1cc2ccccc2[nH]1)C1CNCc2[nH]c(=O)c3cc(F)ccc3c21 (single isomer, unassigned) [Compound 78, N-(8-Fluoro-6-oxo-1,2,3,4,5,6-hexahydrobenzo[c][1,7]naphthyridin-1-yl)-N-methyl-1H-indole-2-carboxamide]",EC50,HepDE19 assay,8100 nM
"CN(C(=O)c1cc2ccccc2[nH]1)C1CN(CCO)Cc2[nH]c(=O)c3cc(F)ccc3c21 (single isomer, unassigned) [Compound 79, N-(8-Fluoro-3-(2-hydroxyethyl)-6-oxo-1,2,3,4,5,6-hexahydrobenzo[c][1,7]naphthyridin-1-yl)-N-methyl-1H-indole-2-carboxamide]",EC50,"Hepatitis B virus, HepDE19, HepDE19 assay",10000 nM
"CN(C(=O)c1cc2ccccc2[nH]1)C1CN(CCO)Cc2[nH]c(=O)c3cc(F)ccc3c21 (single isomer, unassigned) [Compound 80, N-(8-Fluoro-3-(2-hydroxyethyl)-6-oxo-1,2,3,4,5,6-hexahydrobenzo[c][1,7]naphthyridin-1-yl)-N-methyl-1H-indole-2-carboxamide]",EC50,HepDE19 assay,6300 nM
"CC(=O)N1Cc2[nH]c(=O)c3cc(F)c(F)cc3c2C(N(C)C(=O)c2cc3ccccc3[nH]2)C1 (single isomer, unassigned) [Compound 81, N-(3-Acetyl-8,9-difluoro-6-oxo-1,2,3,4,5,6-hexahydrobenzo[c][1,7]naphthyridin-1-yl)-N-methyl-1H-indole-2-carboxamide]",EC50,HepDE19 assay,14000 nM
"CC(=O)N1Cc2[nH]c(=O)c3cc(F)c(F)cc3c2C(N(C)C(=O)c2cc3ccccc3[nH]2)C1 (single isomer, unassigned) [Compound 82, N-(3-Acetyl-8,9-difluoro-6-oxo-1,2,3,4,5,6-hexahydrobenzo[c][1,7]naphthyridin-1-yl)-N-methyl-1H-indole-2-carboxamide]",EC50,HepDE19 assay,3500 nM
"CN(C(=O)c1cc2ccccc2[nH]1)C1CN(CCO)Cc2[nH]c(=O)c3cc(F)c(F)cc3c21 (single isomer, unassigned) [Compound 89, N-(8,9-Difluoro-3-(2-hydroxyethyl)-6-oxo-1,2,3,4,5,6-hexahydrobenzo[c][1,7]naphthyridin-1-yl)-N-methyl-1H-indole-2-carboxamide]",EC50,HepDE19 assay,7900 nM
"CN(C(=O)c1cc2ccccc2[nH]1)C1CN(CCO)Cc2[nH]c(=O)c3cc(F)c(F)cc3c21 (single isomer, unassigned) [Compound 90, N-(8,9-Difluoro-3-(2-hydroxyethyl)-6-oxo-1,2,3,4,5,6-hexahydrobenzo[c][1,7]naphthyridin-1-yl)-N-methyl-1H-indole-2-carboxamide]",EC50,HepDE19 assay,500 nM
"CN(C(=O)c1cc2cc(F)ccc2[nH]1)C1CNCc2[nH]c(=O)c3cc(F)c(F)cc3c21 (single isomer, unassigned) [Compound 101, N-(8,9-Difluoro-6-oxo-1,2,3,4,5,6-hexahydrobenzo[c][1,7]naphthyridin-1-yl)-5-fluoro-N-methyl-1H-indole-2-carboxamide]",EC50,HepDE19 assay,10 nM
"CN(C(=O)c1cc2cc(F)ccc2[nH]1)C1CNCc2[nH]c(=O)c3cc(F)c(F)cc3c21 (single isomer, unassigned) [Compound 102, N-(8,9-Difluoro-6-oxo-1,2,3,4,5,6-hexahydrobenzo[c][1,7]naphthyridin-1-yl)-5-fluoro-N-methyl-1H-indole-2-carboxamide]",EC50,HepDE19 assay,1800 nM
"CN(C(=O)c1cc2c(F)cccn2c1)C1CSCc2[nH]c(=O)c3cc(F)c(F)cc3c21 (single isomer, unassigned) [Compound 103, N-(8,9-Difluoro-6-oxo-1,4,5,6-tetrahydro-2H-thiopyrano[3,4-c]isoquinolin-1-yl)-8-fluoro-N-methylindolizine-2-carboxamide]",EC50,HepDE19 assay,2500 nM
"CN(C(=O)c1cc2c(F)cccn2c1)C1CSCc2[nH]c(=O)c3cc(F)c(F)cc3c21 (single isomer, unassigned) [Compound 104, N-(8,9-Difluoro-6-oxo-1,4,5,6-tetrahydro-2H-thiopyrano[3,4-c]isoquinolin-1-yl)-8-fluoro-N-methylindolizine-2-carboxamide]",EC50,HepDE19 assay,10 nM
"CN(C(=O)c1cc2c(F)cccc2[nH]1)C1CNCc2[nH]c(=O)c3cc(F)c(F)cc3c21 (single isomer, unassigned) [Compound 105, N-(8,9-Difluoro-6-oxo-1,2,3,4,5,6-hexahydrobenzo[c][1,7]naphthyridin-1-yl)-4-fluoro-N-methyl-1H-indole-2-carboxamide]",EC50,HepDE19 assay,10 nM
"CN(C(=O)c1cc2c(F)cccc2[nH]1)C1CNCc2[nH]c(=O)c3cc(F)c(F)cc3c21 (single isomer, unassigned) [Compound 106, N-(8,9-Difluoro-6-oxo-1,2,3,4,5,6-hexahydrobenzo[c][1,7]naphthyridin-1-yl)-4-fluoro-N-methyl-1H-indole-2-carboxamide]",EC50,HepDE19 assay,100 nM
"CN(C(=O)c1cc2ccc(F)cc2[nH]1)C1CNCc2[nH]c(=O)c3cc(F)c(F)cc3c21 (single isomer, unassigned) [Compound 107, N-(8,9-Difluoro-6-oxo-1,2,3,4,5,6-hexahydrobenzo[c][1,7]naphthyridin-1-yl)-6-fluoro-N-methyl-1H-indole-2-carboxamide]",EC50,HepDE19 assay,20 nM
"CN(C(=O)c1cc2ccc(F)cc2[nH]1)C1CNCc2[nH]c(=O)c3cc(F)c(F)cc3c21 (single isomer, unassigned) [Compound 108, N-(8,9-Difluoro-6-oxo-1,2,3,4,5,6-hexahydrobenzo[c][1,7]naphthyridin-1-yl)-6-fluoro-N-methyl-1H-indole-2-carboxamide]",EC50,HepDE19 assay,1600 nM
"CN(C(=O)c1cc2cccc(F)c2[nH]1)C1CNCc2[nH]c(=O)c3cc(F)c(F)cc3c21 (single isomer, unassigned) [Compound 113, N-(8,9-Difluoro-6-oxo-1,2,3,4,5,6-hexahydrobenzo[c][1,7]naphthyridin-1-yl)-7-fluoro-N-methyl-1H-indole-2-carboxamide]",EC50,HepDE19 assay,430 nM
"CN(C(=O)c1cc2cccc(F)c2[nH]1)C1CNCc2[nH]c(=O)c3cc(F)c(F)cc3c21 (single isomer, unassigned) [Compound 114, N-(8,9-Difluoro-6-oxo-1,2,3,4,5,6-hexahydrobenzo[c][1,7]naphthyridin-1-yl)-7-fluoro-N-methyl-1H-indole-2-carboxamide]",EC50,HepDE19 assay,20 nM
"CN(C(=O)c1cc2cc(F)c(F)cc2[nH]1)C1CNCc2[nH]c(=O)c3cc(F)c(F)cc3c21 (single isomer, unassigned) [Compound 115, N-(8,9-Difluoro-6-oxo-1,2,3,4,5,6-hexahydrobenzo[c][1,7]naphthyridin-1-yl)-5,6-difluoro-N-methyl-1H-indole-2-carboxamide]",EC50,HepDE19 assay,20 nM
"CN(C(=O)c1cc2cc(F)c(F)cc2[nH]1)C1CNCc2[nH]c(=O)c3cc(F)c(F)cc3c21 (single isomer, unassigned) [Compound 116, N-(8,9-Difluoro-6-oxo-1,2,3,4,5,6-hexahydrobenzo[c][1,7]naphthyridin-1-yl)-5,6-difluoro-N-methyl-1H-indole-2-carboxamide]",EC50,HepDE19 assay,1300 nM
"CN(C(=O)c1cc2c(F)cc(F)cc2[nH]1)C1CNCc2[nH]c(=O)c3cc(F)c(F)cc3c21 (single isomer, unassigned) [Compound 117, N-(8,9-Difluoro-6-oxo-1,2,3,4,5,6-hexahydrobenzo[c][1,7]naphthyridin-1-yl)-4,6-difluoro-N-methyl-1H-indole-2-carboxamide]",EC50,HepDE19 assay,20 nM
